Data: patent US20240342161A1, “BISBENZYLISOQUINOLINES AS CONDITIONING AGENTS FOR IMMUNE THERAPY” (priority 2023, published 2024)
“And” between values parts separate entries of the source, which are not always exact repeats. Identical values can stand only once.

What was measured:
[1] = target: T1, CAMKII gamma (Homo sapiens, UniProt Q13555); test: CAMKII gamma kinase activity (ADP Glo); format: biochemical; conditions: for units: duplicate reactions
T1 construct: purchased Promega V3531
Protocol: An enzymatic study was conducted to evaluate the inhibition of CAMKII gamma by ES-3000 (Tetrandrine). CAMKII gamma kinase activity was measured using […] purchased from Promega following the Promega protocol. CAMKII enzyme system purchased from Promega (V3531). ADP Glo was used for detection. Assay optimized for linearity of protein and time. Conditions for inhibitor screening 25 ng CAMKII, 20 min. incubations, inhibitor or DMSO (5%) at RT in 20 uL total volume. Inhibitor, ATP (10 or 50 μM), substrates and buffer added to tubes and reactions started with enzyme. […] Reactions terminated at 20 min. by adding ADP Glo reaction following manufactures instructions. All reactions were done in duplicate. Calculations of percent (%) inhibition determined by dividing the mean activity at each condition by the mean of the DMSO control times 100.

[2] = target: P-glycoprotein (P-gp) (Homo sapiens, UniProt P08183); conditions: cited from earlier work
[3] = target: hERG (Homo sapiens, UniProt Q12809); test: hERG inhibition, IonWorks HT electrophysiology in CHO cells stably transfected with hERG
[4] = system: bcr-abl; test: qPCR assay for bcr-abl in plucked CML colonies; format: cell-based, human; conditions: Secondary colonies, 10 μM, number of colonies; listed as Tetrandrine
Protocol: To determine whether a colony was normal (bcr-abl negative and abl positive) or diseased (bcr-abl and abl positive), a TaqMan®-based qPCR test was used. In order to score the colonies positive or negative, the following scoring strategy was performed. All colonies were assayed in duplicate for each target. If a singleton reaction yielded a Ct then the reaction scored a 1. If no Ct was recorded, a score of 0 was given. From here, we used a logic test to score the colonies into four different categories: bcr-abl and abl, abl only, bcr-abl only or both negative. In order to be placed in a category, a colony must score a 1 in both reactions. However, if a colony only scored a 1 for one out of the two reactions, this colony was removed from the analysis. […] Alternatively, if a colony scored a 1 in only both of the bcr-abl reactions or a 1 in only both the abl reactions, the colony was placed in the bcr-abl only or abl only category, respectively. If the colony scored a 0 for both targets (bcr-abl and abl) then the colony was placed in the both negative category.
In total 48 primary colonies and 31 secondary replated colonies were assessed for bcr-abl and abl using qPCR. […] Thirteen secondary colonies treated with Tetrandrine at 10 μM were assessed.

[5] = system: CML colonies, secondary clonal growth; test: Replating assay (secondary clonal growth of CML colonies); format: cell-based, human; conditions: colonies from original cultures with ES-3000 @ 10 μM; 24 wells
[6] = system: β-catenin; test: β-catenin protein level in K562 cell extracts by western blot; format: cell-based, human
Protocol: The second portion was to quantitate the levels of β-catenin protein by western blot. TET's ability in an in vitro assay to reduce β-catenin expression was tested in human erythroleukemic (K562) cells. Testing was conducted by Alamo Laboratories, San Antonia, TX.
Briefly, the method to quantitate β-catenin protein by western blot was as follows: Extracts of K562 cells (untreated and treated with various concentrations of tetrandrine) were concentrated to 0.4 ml using Centricon-3 column to yield a protein concentration of approximately 2 mg/ml. Samples were mixed with 5× Laemmli buffer and loaded on 8-16% Tris-Glycine gradient gel, then polyacrylamide gel electrophoresis (PAGE) was run at 85 volts for 100 minutes at 6° C. and proteins were transferred on PVDF membrane at 70 Volts for 85 minutes at 8° C. Membrane was blocked with 5% milk in Tris-buffered Saline containing 0.1% TW-20 (TBST). Membrane was incubated with primary antibody for 18 hours at 4° C. followed by 3 washes, 5 minutes each, with TBST and incubated with secondary antibody in TBST for 2 hours at 25° C. The membrane was washed again with TBST as described above and incubated with ECL-2 substrate for 5 minutes and scanned on Kodak Image Station. After scan, blot was stripped of primary and secondary antibodies and re-probed with anti-beta Actin antibody as described above. Protein bands in WB images were quantitated using Molecular Imaging software pack MIS-4.0 software and tabulated in Excel spreadsheet.

T1 sequence (Q13555 whole entry): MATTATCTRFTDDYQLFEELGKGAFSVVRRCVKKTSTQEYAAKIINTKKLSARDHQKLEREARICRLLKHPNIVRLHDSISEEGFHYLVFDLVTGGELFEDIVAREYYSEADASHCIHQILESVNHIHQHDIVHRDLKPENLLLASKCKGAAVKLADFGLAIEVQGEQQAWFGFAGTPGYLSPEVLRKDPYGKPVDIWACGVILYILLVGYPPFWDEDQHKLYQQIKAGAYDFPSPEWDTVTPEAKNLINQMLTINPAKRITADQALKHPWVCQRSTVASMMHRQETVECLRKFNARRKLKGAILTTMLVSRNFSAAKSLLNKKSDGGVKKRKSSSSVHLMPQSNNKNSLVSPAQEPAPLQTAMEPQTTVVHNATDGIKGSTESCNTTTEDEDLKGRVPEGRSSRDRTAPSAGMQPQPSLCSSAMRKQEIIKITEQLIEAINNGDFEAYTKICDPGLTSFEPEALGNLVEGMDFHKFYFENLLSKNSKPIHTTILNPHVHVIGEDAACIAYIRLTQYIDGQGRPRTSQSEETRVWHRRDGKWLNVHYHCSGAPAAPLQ
hERG, sequence (Q12809 whole entry): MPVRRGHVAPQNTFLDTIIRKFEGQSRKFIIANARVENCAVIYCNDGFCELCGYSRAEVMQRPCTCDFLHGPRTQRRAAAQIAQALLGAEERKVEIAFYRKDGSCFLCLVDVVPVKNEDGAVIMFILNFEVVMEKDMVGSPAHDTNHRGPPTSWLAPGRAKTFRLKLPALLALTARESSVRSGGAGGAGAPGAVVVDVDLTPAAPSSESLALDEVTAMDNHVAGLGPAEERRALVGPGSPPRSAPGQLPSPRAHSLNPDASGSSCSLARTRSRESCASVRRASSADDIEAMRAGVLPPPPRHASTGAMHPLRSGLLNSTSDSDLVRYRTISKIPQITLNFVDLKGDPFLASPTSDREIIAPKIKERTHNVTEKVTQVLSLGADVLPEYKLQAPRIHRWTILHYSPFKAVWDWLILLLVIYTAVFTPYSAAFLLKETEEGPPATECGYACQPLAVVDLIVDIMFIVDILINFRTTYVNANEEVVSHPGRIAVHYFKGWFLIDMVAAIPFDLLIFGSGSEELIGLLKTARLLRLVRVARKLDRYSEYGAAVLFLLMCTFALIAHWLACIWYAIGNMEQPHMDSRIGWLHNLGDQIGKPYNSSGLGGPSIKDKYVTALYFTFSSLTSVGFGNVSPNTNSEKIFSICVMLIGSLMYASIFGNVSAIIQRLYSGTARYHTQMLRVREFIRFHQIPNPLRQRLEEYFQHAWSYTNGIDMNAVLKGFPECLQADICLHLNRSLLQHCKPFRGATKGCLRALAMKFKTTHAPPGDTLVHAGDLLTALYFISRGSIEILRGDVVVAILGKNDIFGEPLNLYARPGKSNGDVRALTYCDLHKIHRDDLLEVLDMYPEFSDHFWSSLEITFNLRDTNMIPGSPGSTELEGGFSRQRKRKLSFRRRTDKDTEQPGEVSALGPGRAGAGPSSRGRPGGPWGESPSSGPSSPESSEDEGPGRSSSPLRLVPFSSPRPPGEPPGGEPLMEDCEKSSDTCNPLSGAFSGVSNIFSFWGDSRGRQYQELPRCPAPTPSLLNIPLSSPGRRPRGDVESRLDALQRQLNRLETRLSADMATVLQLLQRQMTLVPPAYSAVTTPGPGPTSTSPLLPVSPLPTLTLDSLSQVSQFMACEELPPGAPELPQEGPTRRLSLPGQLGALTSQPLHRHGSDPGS
P-glycoprotein (P-gp), sequence (P08183 whole entry): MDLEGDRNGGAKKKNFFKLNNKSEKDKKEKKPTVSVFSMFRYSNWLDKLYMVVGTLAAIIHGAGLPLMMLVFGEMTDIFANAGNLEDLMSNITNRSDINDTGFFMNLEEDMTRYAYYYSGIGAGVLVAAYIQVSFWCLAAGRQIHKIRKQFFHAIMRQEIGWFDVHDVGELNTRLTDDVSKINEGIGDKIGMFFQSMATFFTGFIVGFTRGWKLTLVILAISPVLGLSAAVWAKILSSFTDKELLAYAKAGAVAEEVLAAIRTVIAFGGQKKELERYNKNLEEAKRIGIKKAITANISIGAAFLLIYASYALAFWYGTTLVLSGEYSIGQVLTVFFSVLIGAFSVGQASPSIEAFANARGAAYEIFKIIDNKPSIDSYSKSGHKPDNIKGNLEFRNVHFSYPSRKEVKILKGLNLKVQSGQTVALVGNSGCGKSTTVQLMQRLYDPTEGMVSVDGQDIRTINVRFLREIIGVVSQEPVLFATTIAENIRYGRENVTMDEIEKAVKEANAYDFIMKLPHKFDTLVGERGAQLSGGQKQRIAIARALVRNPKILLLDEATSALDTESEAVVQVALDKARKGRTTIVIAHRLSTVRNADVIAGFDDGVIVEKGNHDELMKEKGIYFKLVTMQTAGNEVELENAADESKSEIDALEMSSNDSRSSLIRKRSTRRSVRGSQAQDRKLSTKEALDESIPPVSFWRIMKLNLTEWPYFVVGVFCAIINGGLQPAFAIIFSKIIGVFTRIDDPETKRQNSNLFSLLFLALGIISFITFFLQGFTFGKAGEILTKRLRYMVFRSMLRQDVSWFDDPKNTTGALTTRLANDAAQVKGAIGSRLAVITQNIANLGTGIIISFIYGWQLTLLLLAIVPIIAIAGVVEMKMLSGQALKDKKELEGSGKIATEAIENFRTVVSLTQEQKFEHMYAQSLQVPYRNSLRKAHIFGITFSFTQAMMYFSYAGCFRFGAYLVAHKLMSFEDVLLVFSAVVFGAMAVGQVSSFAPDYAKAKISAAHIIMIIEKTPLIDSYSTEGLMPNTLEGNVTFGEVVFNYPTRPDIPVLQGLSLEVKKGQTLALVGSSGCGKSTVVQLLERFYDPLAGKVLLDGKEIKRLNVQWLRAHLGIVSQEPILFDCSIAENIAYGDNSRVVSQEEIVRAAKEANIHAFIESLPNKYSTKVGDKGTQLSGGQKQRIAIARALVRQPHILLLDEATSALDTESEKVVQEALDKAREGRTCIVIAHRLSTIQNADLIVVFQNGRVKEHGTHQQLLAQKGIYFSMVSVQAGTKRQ

6,6′,7,12-tetramethoxy-2,2′-dimethyl-berbaman [ES-3000]
mean ([1]; 10 uM ATP, inhibitor 30 uM): 3.09 | units ([1]; 10 uM ATP, inhibitor 30 uM): 2.75 units and 3.43 units | mean ([1]; 10 uM ATP, inhibitor 100 uM): 2.87 | units ([1]; 10 uM ATP, inhibitor 100 uM): 2.5 units and 3.24 units | mean ([1]; 10 uM ATP, inhibitor 250 uM): 0.41 | units ([1]; 10 uM ATP, inhibitor 250 uM): 0.34 units and 0.48 units | mean ([1]; 50 uM ATP, inhibitor 30 uM): 10.55 | units ([1]; 50 uM ATP, inhibitor 30 uM): 10.4 units and 10.7 units | mean ([1]; 50 uM ATP, inhibitor 100 uM): 7.955 | units ([1]; 50 uM ATP, inhibitor 100 uM): 8.81 units and 7.1 units | CAMKII gamma kinase activity inhibition, result in words ([1]; 30-250 uM, 10 or 50 μM ATP): inhibited CAMKII gamma kinase activity in a dose dependent manner | substrate of P-gp [2]: not a substrate of P-gp | function of P-gp ([2]; without altering the protein expression level of Pgp): directly inhibits the function of P-gp in a dose-dependent manner | plasma levels above which QT prolongation might be expected in subjects ([3]; interpretation from hERG IC50 and protein binding): above 249 ng/mL | safety for cardiac conduction-related toxicity (hERG IC50 versus human Cmax) ([3]; utilizing Cmax from previous human clinical experience): 13 fold | bcr-abl and abl colonies [4]: No colonies scored positive for bcr-abl and abl | Replating colony count per well [5]: 1 | β-catenin band ([6]; K562 cells treated with 0 to 10 uM): evident | convincing β-catenin band ([6]; K562 cells treated with 20 and 40 uM): absent | β-catenin level, result in words ([6]; K562 cells, 0 to 40 uM, 24 hours): lowers the β-catenin level in K562 cells in a dose dependent manner
